Laboratory results from ChEMBL document CHEMBL5696441 (Nat Chem Biol, 2011).

What was measured:
[1] = system: Epidermal growth factor receptor (Homo sapiens), P00533 [UNDEFINED MUTATION]; assay: Inhibition of human EGFR d746-750 mutant assessed as residual activity at 1 uM using PolyEY as substrate in presence of 33P-ATP by ProQinase assay relative to control
[2] = molecular target: Fibroblast growth factor receptor 1 (Homo sapiens) (UniProt P11362); assay: Inhibition of human FGFR1 assessed as residual activity at 1 uM using PolyEY as substrate in presence of 33P-ATP by ProQinase assay relative to control
[3] = system: Epidermal growth factor receptor (Homo sapiens), P00533 [L858R,T790M]; assay: Inhibition of human EGFR T790M/L858R mutant assessed as residual activity at 1 uM using PolyEY as substrate in presence of 33P-ATP by ProQinase assay relative to control
[4] = molecular target: RAC-beta serine/threonine-protein kinase (Homo sapiens) (UniProt P31751); assay: Inhibition of human AKT2 assessed as residual activity at 1 uM using RBER-GSK3(14-27) as substrate in presence of 33P-ATP by ProQinase assay relative to control
[5] = molecular target: Protein kinase C theta type (Homo sapiens) (UniProt Q04759); assay: Inhibition of human PKCtheta assessed as residual activity at 1 uM using 3xChocktide-PKC(19-31) as substrate in presence of 33P-ATP by ProQinase assay relative to control
[6] = system: eIF-2-alpha kinase GCN2 (Homo sapiens), Q9P2K8 [S808G]; assay: Inhibition of GCN2 S808G mutant kinase domain 2 (unknown origin) assessed as remaining activity at 1 uM by Kinome scan method relative to control
[7] = molecular target: Mitogen-activated protein kinase kinase kinase 3 (Homo sapiens) (UniProt Q99759); assay: Inhibition of human MEKK3 assessed as residual activity at 1 uM using casein as substrate in presence of 33P-ATP by ProQinase assay relative to control
Sequence of Mitogen-activated protein kinase kinase kinase 3 (Homo sapiens) (Q99759 whole entry): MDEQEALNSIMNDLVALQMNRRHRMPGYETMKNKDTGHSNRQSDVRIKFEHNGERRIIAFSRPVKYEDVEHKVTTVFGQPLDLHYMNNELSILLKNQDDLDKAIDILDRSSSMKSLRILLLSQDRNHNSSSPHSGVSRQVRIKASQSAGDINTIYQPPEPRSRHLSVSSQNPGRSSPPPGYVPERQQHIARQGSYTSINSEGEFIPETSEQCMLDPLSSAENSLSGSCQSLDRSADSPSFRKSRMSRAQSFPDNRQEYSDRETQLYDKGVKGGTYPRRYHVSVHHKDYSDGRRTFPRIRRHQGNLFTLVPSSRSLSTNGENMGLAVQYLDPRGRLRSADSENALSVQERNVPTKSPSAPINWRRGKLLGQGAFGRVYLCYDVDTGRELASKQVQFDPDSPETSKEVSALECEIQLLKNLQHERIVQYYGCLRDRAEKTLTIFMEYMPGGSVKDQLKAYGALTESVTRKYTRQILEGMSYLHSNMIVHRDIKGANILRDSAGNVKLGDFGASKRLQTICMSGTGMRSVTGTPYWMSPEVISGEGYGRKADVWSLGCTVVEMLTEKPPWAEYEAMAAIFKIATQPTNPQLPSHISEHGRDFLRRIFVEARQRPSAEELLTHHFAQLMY

[8] = molecular target: NUAK family SNF1-like kinase 2 (Homo sapiens) (UniProt Q9H093); assay: Inhibition of human SNARK assessed as residual activity at 1 uM using histone H2B as substrate in presence of 33P-ATP by ProQinase assay relative to control
Sequence of NUAK family SNF1-like kinase 2 (Homo sapiens) (Q9H093 whole entry): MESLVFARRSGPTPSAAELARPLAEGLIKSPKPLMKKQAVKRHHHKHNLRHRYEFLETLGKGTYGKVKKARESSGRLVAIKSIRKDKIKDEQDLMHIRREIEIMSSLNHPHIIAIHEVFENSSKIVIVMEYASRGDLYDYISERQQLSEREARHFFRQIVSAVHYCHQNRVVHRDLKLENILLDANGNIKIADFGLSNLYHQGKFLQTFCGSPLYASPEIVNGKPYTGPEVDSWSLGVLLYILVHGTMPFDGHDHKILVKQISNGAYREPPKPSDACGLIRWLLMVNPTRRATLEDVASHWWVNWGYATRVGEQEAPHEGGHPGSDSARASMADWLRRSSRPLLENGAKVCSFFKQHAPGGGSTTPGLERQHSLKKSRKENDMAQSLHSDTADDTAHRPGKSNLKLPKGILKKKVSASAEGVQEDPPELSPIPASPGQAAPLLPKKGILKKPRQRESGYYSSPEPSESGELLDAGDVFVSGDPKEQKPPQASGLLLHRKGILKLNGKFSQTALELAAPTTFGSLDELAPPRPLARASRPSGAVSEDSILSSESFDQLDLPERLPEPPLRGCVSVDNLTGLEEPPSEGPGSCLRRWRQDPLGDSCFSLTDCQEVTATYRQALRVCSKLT

[9] = molecular target: Calcium/calmodulin-dependent protein kinase type 1D (Homo sapiens) (UniProt Q8IU85); assay: Inhibition of human CAMK1D assessed as residual activity at 1 uM using RBER-CHKtide as substrate in presence of 33P-ATP by ProQinase assay relative to control
Sequence of Calcium/calmodulin-dependent protein kinase type 1D (Homo sapiens) (Q8IU85 whole entry, looked up): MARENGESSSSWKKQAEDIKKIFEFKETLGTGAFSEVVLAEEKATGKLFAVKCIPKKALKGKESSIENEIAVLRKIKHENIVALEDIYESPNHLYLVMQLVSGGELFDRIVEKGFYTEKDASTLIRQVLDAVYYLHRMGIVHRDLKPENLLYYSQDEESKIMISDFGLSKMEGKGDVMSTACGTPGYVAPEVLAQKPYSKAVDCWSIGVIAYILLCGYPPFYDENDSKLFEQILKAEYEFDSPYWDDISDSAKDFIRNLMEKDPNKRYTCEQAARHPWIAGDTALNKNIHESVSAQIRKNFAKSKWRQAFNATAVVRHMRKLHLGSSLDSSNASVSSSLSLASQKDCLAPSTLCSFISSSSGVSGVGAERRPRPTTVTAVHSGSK

[10] = molecular target: Calcium/calmodulin-dependent protein kinase type II subunit delta (Homo sapiens) (UniProt Q13557); assay: Inhibition of CAMK2D (unknown origin) assessed as remaining activity at 1 uM by Kinome scan method relative to control
Sequence of Calcium/calmodulin-dependent protein kinase type II subunit delta (Homo sapiens) (Q13557 whole entry): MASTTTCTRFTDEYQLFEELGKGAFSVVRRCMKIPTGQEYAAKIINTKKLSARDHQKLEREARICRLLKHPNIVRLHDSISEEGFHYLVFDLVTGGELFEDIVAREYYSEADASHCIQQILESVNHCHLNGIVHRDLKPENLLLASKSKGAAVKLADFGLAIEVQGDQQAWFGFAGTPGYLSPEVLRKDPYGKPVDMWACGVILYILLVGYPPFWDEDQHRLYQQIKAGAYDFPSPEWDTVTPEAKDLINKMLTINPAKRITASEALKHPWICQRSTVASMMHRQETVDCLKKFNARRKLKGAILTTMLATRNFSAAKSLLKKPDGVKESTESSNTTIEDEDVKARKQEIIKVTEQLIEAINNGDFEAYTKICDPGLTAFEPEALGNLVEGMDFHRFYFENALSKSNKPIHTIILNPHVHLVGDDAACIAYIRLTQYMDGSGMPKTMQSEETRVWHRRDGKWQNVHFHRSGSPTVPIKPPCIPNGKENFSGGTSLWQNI

[11] = molecular target: G protein-coupled receptor kinase 3 (Homo sapiens) (UniProt P35626); assay: Inhibition of human GRK3 assessed as residual activity at 1 uM using casein as substrate in presence of 33P-ATP by ProQinase assay relative to control
Sequence of G protein-coupled receptor kinase 3 (Homo sapiens) (P35626 whole entry): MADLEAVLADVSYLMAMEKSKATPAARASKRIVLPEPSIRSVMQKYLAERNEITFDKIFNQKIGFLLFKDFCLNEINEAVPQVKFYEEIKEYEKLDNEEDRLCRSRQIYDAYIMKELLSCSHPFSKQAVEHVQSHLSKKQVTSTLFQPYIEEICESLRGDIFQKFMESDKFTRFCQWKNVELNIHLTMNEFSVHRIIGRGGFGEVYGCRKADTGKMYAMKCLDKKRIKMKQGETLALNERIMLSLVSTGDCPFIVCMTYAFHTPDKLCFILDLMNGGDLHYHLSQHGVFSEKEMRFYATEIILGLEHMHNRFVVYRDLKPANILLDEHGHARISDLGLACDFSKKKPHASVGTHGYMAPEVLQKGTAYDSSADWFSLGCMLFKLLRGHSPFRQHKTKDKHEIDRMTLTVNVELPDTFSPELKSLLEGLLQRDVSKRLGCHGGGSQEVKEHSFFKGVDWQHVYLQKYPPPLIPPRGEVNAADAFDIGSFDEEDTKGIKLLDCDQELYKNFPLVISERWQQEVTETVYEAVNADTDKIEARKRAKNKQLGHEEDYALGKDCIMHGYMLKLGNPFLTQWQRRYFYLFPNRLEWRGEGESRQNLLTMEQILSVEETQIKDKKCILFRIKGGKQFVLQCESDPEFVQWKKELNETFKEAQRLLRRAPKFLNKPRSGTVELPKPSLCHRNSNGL

[12] = molecular target: cAMP-dependent protein kinase catalytic subunit PRKX (Homo sapiens) (UniProt P51817); assay: Inhibition of human PRKX assessed as residual activity at 1 uM using RBER-GSK3(14-27) as substrate in presence of 33P-ATP by ProQinase assay relative to control
Sequence of cAMP-dependent protein kinase catalytic subunit PRKX (Homo sapiens) (P51817 whole entry, canonical isoform): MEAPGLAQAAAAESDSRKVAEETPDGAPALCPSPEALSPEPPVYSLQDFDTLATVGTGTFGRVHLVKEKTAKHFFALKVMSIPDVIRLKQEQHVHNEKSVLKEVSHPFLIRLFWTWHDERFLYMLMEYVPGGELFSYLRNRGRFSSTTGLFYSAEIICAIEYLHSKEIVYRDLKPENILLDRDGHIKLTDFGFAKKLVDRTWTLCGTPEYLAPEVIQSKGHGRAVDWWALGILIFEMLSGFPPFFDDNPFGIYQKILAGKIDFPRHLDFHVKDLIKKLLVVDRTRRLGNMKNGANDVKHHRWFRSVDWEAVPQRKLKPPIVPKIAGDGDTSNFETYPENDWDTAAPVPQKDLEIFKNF

[13] = molecular target: Casein kinase I isoform gamma-2 (Homo sapiens) (UniProt P78368); assay: Inhibition of CSNK1G2 (unknown origin) assessed as remaining activity at 1 uM by Kinome scan method relative to control
Sequence of Casein kinase I isoform gamma-2 (Homo sapiens) (P78368 whole entry, looked up, canonical isoform): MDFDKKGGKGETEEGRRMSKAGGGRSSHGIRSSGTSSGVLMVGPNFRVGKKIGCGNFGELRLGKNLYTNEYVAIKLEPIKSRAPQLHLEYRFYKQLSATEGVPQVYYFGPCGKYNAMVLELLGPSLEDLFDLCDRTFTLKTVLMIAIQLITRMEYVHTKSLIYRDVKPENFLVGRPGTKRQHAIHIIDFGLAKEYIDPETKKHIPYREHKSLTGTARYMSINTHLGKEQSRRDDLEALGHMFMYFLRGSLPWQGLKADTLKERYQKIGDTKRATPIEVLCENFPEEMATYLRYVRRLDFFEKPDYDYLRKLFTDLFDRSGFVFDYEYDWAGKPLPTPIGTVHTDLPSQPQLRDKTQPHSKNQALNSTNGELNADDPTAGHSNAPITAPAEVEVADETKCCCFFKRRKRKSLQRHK

[14] = molecular target: Mast/stem cell growth factor receptor Kit (Homo sapiens) (UniProt P10721); assay: Inhibition of KIT (unknown origin) assessed as remaining activity at 1 uM by Kinome scan method relative to control
[15] = molecular target: Tyrosine-protein kinase Yes (Homo sapiens) (UniProt P07947); assay: Inhibition of human YES assessed as residual activity at 1 uM using polyEY as substrate in presence of 33P-ATP by ProQinase assay relative to control
Sequence of Tyrosine-protein kinase Yes (Homo sapiens) (P07947 2-543 limits assumed): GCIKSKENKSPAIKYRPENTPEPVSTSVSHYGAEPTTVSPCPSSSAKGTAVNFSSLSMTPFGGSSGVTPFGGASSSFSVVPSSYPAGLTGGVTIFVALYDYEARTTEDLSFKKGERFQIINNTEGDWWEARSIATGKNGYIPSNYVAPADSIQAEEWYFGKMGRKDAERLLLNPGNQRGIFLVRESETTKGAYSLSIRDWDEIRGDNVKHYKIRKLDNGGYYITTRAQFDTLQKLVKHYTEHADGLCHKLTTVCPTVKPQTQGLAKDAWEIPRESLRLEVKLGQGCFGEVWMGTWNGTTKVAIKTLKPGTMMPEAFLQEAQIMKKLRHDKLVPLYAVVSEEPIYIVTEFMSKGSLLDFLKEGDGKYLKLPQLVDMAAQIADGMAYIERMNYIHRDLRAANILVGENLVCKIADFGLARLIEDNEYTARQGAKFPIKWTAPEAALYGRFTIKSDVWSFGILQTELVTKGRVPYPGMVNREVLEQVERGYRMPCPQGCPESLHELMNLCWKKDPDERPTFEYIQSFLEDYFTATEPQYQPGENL

[16] = molecular target: T1, Tyrosine-protein kinase ITK/TSK (Homo sapiens) (UniProt Q08881); assay: Inhibition of human ITK assessed as residual activity at 1 uM using polyEY as substrate in presence of 33P-ATP by ProQinase assay relative to control
T1 sequence (whole entry): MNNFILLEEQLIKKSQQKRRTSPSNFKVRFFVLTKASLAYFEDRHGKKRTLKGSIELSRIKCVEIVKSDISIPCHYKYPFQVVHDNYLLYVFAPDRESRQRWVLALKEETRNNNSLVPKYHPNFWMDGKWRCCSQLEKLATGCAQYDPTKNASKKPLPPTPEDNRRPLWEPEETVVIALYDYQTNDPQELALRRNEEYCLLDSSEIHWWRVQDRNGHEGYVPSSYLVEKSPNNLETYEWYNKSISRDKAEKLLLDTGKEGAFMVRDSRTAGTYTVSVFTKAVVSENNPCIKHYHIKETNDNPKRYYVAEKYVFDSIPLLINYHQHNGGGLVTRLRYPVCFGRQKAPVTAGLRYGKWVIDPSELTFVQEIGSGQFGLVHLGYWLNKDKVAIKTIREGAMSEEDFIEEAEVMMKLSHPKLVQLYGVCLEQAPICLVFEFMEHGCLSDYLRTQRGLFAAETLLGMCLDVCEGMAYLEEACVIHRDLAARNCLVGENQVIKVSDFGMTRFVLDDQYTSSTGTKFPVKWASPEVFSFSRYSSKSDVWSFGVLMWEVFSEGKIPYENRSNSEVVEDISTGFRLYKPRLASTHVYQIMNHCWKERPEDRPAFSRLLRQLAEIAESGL

[17] = system: Tyrosine-protein kinase ABL1 (Homo sapiens), P00519 [H396P]; assay: Inhibition of human ABL1 H396P mutant assessed as residual activity at 1 uM using Poly(Ala,Glu,Lys,Tyr)6:2:5:1 as substrate in presence of 33P-ATP by ProQinase assay relative to control
[18] = molecular target: Dual specificity protein kinase CLK2 (Homo sapiens) (UniProt P49760); assay: Inhibition of CLK2 (unknown origin) assessed as remaining activity at 1 uM by Kinome scan method relative to control
Sequence of Dual specificity protein kinase CLK2 (Homo sapiens) (P49760 whole entry, looked up, canonical isoform): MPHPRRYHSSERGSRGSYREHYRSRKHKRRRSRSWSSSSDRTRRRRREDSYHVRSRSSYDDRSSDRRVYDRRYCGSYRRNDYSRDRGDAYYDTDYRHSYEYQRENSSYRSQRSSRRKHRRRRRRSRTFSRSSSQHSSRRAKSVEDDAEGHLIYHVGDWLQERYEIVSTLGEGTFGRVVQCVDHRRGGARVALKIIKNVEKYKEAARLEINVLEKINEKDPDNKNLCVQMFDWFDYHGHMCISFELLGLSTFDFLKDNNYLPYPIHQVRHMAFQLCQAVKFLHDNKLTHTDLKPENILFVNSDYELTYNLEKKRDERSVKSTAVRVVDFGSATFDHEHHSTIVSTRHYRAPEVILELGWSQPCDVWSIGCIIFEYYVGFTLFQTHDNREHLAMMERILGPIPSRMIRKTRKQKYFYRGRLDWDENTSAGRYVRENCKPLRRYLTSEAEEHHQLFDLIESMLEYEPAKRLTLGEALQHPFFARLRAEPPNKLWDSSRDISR

[19] = molecular target: Casein kinase I isoform alpha-like (Homo sapiens) (UniProt Q8N752); assay: Inhibition of CSNK1A1L (unknown origin) assessed as remaining activity at 1 uM by Kinome scan method relative to control
Sequence of Casein kinase I isoform alpha-like (Homo sapiens) (Q8N752 whole entry, canonical isoform): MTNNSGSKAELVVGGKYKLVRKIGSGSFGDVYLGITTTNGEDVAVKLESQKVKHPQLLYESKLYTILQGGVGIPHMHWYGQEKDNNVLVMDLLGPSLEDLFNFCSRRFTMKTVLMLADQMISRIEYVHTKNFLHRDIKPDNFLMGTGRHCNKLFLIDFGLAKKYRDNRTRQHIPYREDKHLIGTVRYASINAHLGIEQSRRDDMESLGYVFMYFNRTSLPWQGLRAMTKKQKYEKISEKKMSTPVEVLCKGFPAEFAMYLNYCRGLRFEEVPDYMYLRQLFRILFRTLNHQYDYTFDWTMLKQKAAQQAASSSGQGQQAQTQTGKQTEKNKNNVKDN

[20] = molecular target: Tyrosine-protein kinase Fer (Homo sapiens) (UniProt P16591); assay: Inhibition of human FER assessed as residual activity at 1 uM using polyEY as substrate in presence of 33P-ATP by ProQinase assay relative to control
[21] = molecular target: Rhodopsin kinase GRK7 (Homo sapiens) (UniProt Q8WTQ7); assay: Inhibition of human GRK7 assessed as residual activity at 1 uM using casein as substrate in presence of 33P-ATP by ProQinase assay relative to control
[22] = molecular target: Ephrin type-B receptor 1 (Homo sapiens) (UniProt P54762); assay: Inhibition of EPHB1 (unknown origin) assessed as remaining activity at 1 uM by Kinome scan method relative to control

`O=C1c2ccc(Nc3ccc(F)cc3F)cc2CCc2ccc(OC[C@H](O)CO)cc21` [Skepinone-L] was tested, and the Activity [1] was 100%, the Activity [2] was 117% and the Activity [3] was 93%. It also gave an Activity [4] of 121%, an Activity [5] of 99% and an Activity [6] of 100%. For the same molecule, the Activity [7] was 96%, the Activity [8] was 115% and the Activity [9] was 106%. The Activity [10] was 100%, the Activity [11] was 95% and the Activity [12] was 79%. For the same molecule, the Activity [13] was 100%, the Activity [14] was 93% and the Activity [15] was 119%. The Activity [16] was 97%, the Activity [17] was 99% and the Activity [18] was 90%. It also gave an Activity [19] of 98%, an Activity [20] of 101% and an Activity [21] of 107%. It also gave an Activity [22] of 98%.
